Laboratory results: patent US9512086B2, “Compound for promoting apoptosis of cancer cells and a pharmaceutical composition containing the same and uses thereof” (National Chiao Tung University, priority 2014, dated 2016)

Experiments:
survivin [1] = test: RT-PCR of survivin gene expression in A549 cells; type: cell-based, human; conditions: 0 to 40 μM, 24 hours
Description: After the treatment, total cellular RNA was purified by ZR RNA MiniPrep™ (Zymo Research, Irvine, Calif.) according to the manufacturer's protocol. RNA concentrations were determined by spectrophotometry. cDNAs were synthesized by SuperScript™ III reverse transcriptase with oligo (dT)12-18 primer (Invitrogen). Each reverse transcript was amplified with GAPDH as an internal control. Reverse transcription polymerase chain reaction (RT-PCR) was performed by a DNA thermal cycler (Mastercycler gradient, Hamburg, Germany). […] The conditions of RT-PCR are stated as followed: the initial denaturation was performed at 94° C. for 2 minutes, followed by 30 cycles at 94° C. for 30 seconds, 56° C. for 30 seconds, and 72° C. for 40 seconds; and 72° C. for 5 minutes. The PCR products were visualized on 1.2% agarose gels with ethidium bromide staining under UV transillumination, and photograph was taken by a camera DH27-S3 (Medclub, Taoyuan, Taiwan).

[2] = biological target: T1, FGFR1 (fibroblast growth factor receptor-1) (Homo sapiens, UniProt P11362); test: KinaseProfiler assay, FGFR1; type: biochemical; conditions: read-out: KAR value (kinase activity remaining)
T1 construct: purchased Merck Millipore (KinaseProfiler service)
From the text: (§1) The kinase activity remaining (KAR) value is […] related to kinase activity. […]

[3] = biological target: T2, RET (product of ret proto-oncogene) (Homo sapiens, UniProt P07949); test: KinaseProfiler assay, RET; type: biochemical; conditions: RET; 10 μM; read-out: KAR value (kinase activity remaining)
T2 construct: purchased Merck Millipore (KinaseProfiler service)
From the text: as §1

[4] = biological target: T3, CSNK2A1 (casein kinase-2) (Homo sapiens, UniProt P68400); test: KinaseProfiler assay, CSNK2A1; type: biochemical; conditions: CSNK2A1; 10 μM; read-out: KAR value (kinase activity remaining)
T3 construct: purchased Merck Millipore (KinaseProfiler service)
From the text: as §1

MARK2 (PAR-1Ba) = biological target: T4, MARK2 (PAR-1Ba) (Homo sapiens, UniProt Q7KZI7); test: KinaseProfiler assay, MARK2; type: biochemical; conditions: MARK2; 10 μM; read-out: KAR value (kinase activity remaining)
T4 construct: purchased Merck Millipore (KinaseProfiler service)
From the text: as §1

[5] = biological target: T5, LIMK1 (LIM motif-containing protein kinase-1) (Homo sapiens, UniProt P53667); test: KinaseProfiler assay, LIMK1; type: biochemical; conditions: LIMK1; 10 μM; read-out: KAR value (kinase activity remaining)
T5 construct: purchased Merck Millipore (KinaseProfiler service)
From the text: as §1

EGFR protein kinase = biological target: T6, EGFR protein kinase (Homo sapiens, UniProt P00533); test: ADP-Glo Kinase Assay, EGFR protein kinase activity; type: biochemical
T6 construct: purchased Promega

A549 cells [6] = test: Cell cycle analysis, PI staining and flow cytometry; type: cell-based, human; conditions: 24 hours
Description: After the treatment, the cells were collected and fixed with ice-cold 70% ethanol overnight at −20° C. After centrifugation at 1500 rpm for 5 minutes, the pellets were treated with 4 μg/ml PI solution containing 1% Triton X-100 and 50 μg/ml RNase at 37 °C for 30 minutes in the dark. To avoid cell aggregation, the cell solutions were filtrated through nylon membrane (Becton-Dickinson, San Jose, Calif.). Subsequently, the samples were analyzed by flow cytometry. For each measurement, 10,000 cells were analyzed for DNA content. The percentage of cell cycle phases was quantified by ModFit LT software (Ver. 2.0, Becton-Dickinson).

LCK (lymphocyte kinase) = biological target: T7, LCK (lymphocyte kinase) (Homo sapiens, UniProt P06239); test: KinaseProfiler assay, LCK; type: biochemical; conditions: read-out: KAR value (kinase activity remaining)
T7 construct: purchased Merck Millipore (KinaseProfiler service)

[7] = biological target: T8, MAPK14 (stress-activated protein kinase-2a) (Homo sapiens, UniProt Q16539); test: KinaseProfiler assay, MAPK14; type: biochemical; conditions: MAPK14; 10 μM; read-out: KAR value (kinase activity remaining)
T8 construct: purchased Merck Millipore (KinaseProfiler service)
From the text: as §1

[8] = biological target: T9, SYK (splenic tyrosine kinase) (Homo sapiens, UniProt P43405); test: KinaseProfiler assay, SYK; type: biochemical; conditions: SYK; 10 μM; read-out: KAR value (kinase activity remaining)
T9 construct: purchased Merck Millipore (KinaseProfiler service)
From the text: as §1

[9] = tested on: H1299 human non-small cell lung cell line; test: MTT cell viability, H1299 cells; type: cell-based; conditions: 24 hours
Description: After drug treatment, the cells were washed with PBS and replaced with fresh complete RPMI-1640 medium for 2 days. Thereafter, the medium was replaced and the cells were incubated with 0.5 mg/mL of MTT reagent (Sigma Chemical Co., St. Louis, Mo.) in complete RPMI-1640 medium for 4 hours. The intensity of formazan was measured at 565 nm using a plate reader (VERSAmax, Molecular Dynamics, Sunnyvale, Calif.). The relative percentage of cell viability was calculated by dividing the absorbance of treated cells by that of the control in each experiment.

[10] = biological target: T10, CHEK1 (checkpoint kinase-1) (Homo sapiens, UniProt O14757); test: KinaseProfiler assay, CHEK1; type: biochemical; conditions: read-out: KAR value (kinase activity remaining)
T10 construct: purchased Merck Millipore (KinaseProfiler service)
From the text: The kinase activity remaining (KAR) value is inversely related to kinase activity.

A549 cells [11] = test: Survivin overexpression (pCT-GFP-sur8 transfection) and MTT cell viability; type: cell-based, human; conditions: A549 cells transfected with pCT-GFP-sur8 vs pCT-GFP2
Description: To further determine the effect that Analogue-18 inhibits surviving so as to induce apoptosis. The pCT-GFP2 and pCT-GFP-sur8 were employed for transfection using Lipofectamine™ 2000 (Invitrogen) according to the manufacturer's instructions. The pCT-GFP-sur8 overexpressed surviving, and the pCT-GFP2 only overexpressed green fluorescent protein and was used as a control. A549 cells were plated in 60-mm Petri dish at a density of 2×10^6 per well for 16 to 20 hours, then were transfected with 20 μg of pCT-GFP-sur8 or pCT-GFP2 in serum-free medium for 8 hours at 37° C. in a CO2 incubator. Then, the equal amount medium with 20% fetal bovine serum (FBS) was added without removing the transfection mixture. And proceed the incubation for additional 24 hours. After transfection, the cells were subjected to cytotoxicity assay according to Example 2 and Western blot analysis according to Example 4.

[12] = tested on: A549 human lung xenograft tumors; test: Tumor growth of xenograft human lung tumors in nude mice; type: in vivo; conditions: 30 mg/kg three times every 4 days, day 16; control groups 406.52 mm^3
From the text: (§2) The present invention determines the effect of Analogue-18 on tumor growth of the xenograft human lung tumors in nude mice. BALB/cAnN.Cg-FoxnInu/CrlNarl mice (3-week-old male) were obtained from BioLASCO (BioLASCO Co., Ltd., Taipei, Taiwan). After 2 weeks for environmental adaption, the mice were used for human lung cancer cell inoculation. Solid A549 flank tumors were established by subcutaneous injection of 2×10^6 cells. After 10 days, the mice bearing A549 human lung xenograft tumors were injected with 100 μl corn oil (control) or 30 mg/kg Analogue-18 for three times every 4 days. The tumor size of the mice was measured by a digital caliper every 4 days and calculated by the following formula: (length)×(width)^2×0.5. The xenograft tumors were harvested from scarified mice. The tumors were homogenized and the total lysate were subjected to Western blot analysis according to Example 4.

A549 cells [13] = test: Annexin V-PI apoptosis analysis by flow cytometry; type: cell-based, human; conditions: 10-40 μM for 24 hours
Description: The Annexin V-PI staining kit (BioVision, Mountain View, Calif.) was used to exam the cells by incubating with fluorescent isothiocyanate (FITC)-conjugated-Annexin V and PI according to the manufacturer's instruction. […] The cells were cultured in 60-mm Petri dish at a density of 7×10^5 cells for 16 to 20 hours. […] The cells were trypsinized and collected by centrifugation at 1500 rpm for 5 minutes. Thereafter, the cells were incubated with 500 μl Annexin V-PI labeling solution (containing 5 μl Annexin V-FITC and 5 μl PI in PBS) at room temperature in the dark for 5 minutes. To avoid cell aggregation, the cell solutions were filtered through a nylon mesh membrane (Becton-Dickinson, San Jose, Calif.). Finally, the samples were analyzed immediately using flow cytometer (FACS Calibur, BD Biosciences, Heidelberg, Germany). The percentage of Annexin V-PI staining cells was quantified from a minimum of 10,000 cells by CellQuest software (BD Biosciences).

survivin [14] = test: Western blot of survivin protein in xenograft tumors; type: in vivo, nude mice; conditions: 30 mg/kg three times every 4 days
From the text: as §2

T6 sequence (P00533 25-1210): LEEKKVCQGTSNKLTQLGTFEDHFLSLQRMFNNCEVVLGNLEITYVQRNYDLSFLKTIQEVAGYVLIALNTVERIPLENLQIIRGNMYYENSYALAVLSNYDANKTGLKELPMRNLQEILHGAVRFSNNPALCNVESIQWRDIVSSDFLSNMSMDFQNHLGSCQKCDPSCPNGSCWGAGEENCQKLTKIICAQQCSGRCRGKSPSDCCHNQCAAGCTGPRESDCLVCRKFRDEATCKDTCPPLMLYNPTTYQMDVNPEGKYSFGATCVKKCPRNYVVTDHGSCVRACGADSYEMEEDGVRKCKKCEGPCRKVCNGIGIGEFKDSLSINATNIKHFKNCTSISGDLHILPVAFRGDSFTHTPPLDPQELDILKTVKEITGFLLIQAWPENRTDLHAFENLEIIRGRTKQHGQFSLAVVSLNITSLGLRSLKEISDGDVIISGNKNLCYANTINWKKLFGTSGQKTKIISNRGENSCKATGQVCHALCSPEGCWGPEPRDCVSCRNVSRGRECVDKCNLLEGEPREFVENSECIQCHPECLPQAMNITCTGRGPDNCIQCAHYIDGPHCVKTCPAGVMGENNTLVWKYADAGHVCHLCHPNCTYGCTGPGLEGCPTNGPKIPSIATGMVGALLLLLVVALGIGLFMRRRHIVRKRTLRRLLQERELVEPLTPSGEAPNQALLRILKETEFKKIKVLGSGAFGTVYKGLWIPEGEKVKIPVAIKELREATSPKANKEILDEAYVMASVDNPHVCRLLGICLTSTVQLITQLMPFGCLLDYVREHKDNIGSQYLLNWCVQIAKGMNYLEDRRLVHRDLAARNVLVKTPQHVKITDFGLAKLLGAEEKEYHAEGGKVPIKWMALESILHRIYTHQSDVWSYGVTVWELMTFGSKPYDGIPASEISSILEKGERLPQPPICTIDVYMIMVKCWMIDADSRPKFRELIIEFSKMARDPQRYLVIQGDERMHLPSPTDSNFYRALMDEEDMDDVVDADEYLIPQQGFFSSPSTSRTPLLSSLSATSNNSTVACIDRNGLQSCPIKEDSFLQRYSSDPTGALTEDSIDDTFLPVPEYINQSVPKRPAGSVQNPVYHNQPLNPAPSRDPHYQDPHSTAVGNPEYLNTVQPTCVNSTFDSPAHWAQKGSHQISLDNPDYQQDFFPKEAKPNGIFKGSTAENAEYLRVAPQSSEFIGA
T2 sequence (P07949 29-1114): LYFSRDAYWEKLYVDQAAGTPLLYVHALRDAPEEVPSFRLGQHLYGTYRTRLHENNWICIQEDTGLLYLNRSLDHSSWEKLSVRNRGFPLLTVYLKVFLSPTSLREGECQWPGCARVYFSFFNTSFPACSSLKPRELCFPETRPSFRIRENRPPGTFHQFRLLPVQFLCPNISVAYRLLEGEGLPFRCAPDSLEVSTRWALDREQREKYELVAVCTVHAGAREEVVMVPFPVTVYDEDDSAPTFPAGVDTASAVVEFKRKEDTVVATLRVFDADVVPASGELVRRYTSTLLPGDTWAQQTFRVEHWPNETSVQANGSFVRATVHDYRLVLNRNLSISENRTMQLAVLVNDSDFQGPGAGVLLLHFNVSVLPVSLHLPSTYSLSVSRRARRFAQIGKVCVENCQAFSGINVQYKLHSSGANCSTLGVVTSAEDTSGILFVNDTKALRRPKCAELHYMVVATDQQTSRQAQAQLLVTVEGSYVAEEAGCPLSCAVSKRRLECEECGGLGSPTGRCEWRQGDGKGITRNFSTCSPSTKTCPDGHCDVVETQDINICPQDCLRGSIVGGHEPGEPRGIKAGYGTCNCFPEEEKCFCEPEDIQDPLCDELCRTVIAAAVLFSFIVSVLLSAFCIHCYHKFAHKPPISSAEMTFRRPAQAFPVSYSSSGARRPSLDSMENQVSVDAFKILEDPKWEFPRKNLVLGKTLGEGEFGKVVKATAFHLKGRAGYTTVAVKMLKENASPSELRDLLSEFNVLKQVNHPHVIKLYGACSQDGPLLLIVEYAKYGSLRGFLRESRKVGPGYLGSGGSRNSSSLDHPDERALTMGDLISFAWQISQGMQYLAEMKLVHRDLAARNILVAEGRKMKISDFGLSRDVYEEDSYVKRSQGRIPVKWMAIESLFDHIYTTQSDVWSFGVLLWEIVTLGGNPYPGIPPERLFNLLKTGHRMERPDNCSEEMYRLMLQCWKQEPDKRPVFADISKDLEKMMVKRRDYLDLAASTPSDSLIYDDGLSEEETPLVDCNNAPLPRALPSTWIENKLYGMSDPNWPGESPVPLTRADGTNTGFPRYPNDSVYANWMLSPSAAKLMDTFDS
T1 sequence (P11362 22-822): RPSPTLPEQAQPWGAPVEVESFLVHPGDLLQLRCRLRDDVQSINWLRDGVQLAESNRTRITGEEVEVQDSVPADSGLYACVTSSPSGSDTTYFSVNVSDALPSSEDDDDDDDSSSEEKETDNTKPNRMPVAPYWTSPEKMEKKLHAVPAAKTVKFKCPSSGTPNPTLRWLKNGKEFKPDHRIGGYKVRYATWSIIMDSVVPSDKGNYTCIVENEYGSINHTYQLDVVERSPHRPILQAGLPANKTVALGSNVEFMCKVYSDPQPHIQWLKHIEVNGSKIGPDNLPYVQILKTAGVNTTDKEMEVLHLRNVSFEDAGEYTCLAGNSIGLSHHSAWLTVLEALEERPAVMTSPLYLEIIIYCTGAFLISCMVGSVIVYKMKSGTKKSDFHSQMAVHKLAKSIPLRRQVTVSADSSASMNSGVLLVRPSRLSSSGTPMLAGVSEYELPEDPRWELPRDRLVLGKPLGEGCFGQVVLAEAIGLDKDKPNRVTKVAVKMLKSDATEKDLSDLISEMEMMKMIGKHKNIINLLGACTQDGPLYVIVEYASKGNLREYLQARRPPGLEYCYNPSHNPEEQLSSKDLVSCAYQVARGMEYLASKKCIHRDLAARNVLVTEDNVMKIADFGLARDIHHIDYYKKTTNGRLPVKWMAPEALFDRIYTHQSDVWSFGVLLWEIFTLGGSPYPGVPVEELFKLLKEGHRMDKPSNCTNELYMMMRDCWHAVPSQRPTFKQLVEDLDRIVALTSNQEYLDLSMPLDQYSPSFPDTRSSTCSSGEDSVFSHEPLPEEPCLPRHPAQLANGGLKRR
T10 sequence (O14757 whole entry): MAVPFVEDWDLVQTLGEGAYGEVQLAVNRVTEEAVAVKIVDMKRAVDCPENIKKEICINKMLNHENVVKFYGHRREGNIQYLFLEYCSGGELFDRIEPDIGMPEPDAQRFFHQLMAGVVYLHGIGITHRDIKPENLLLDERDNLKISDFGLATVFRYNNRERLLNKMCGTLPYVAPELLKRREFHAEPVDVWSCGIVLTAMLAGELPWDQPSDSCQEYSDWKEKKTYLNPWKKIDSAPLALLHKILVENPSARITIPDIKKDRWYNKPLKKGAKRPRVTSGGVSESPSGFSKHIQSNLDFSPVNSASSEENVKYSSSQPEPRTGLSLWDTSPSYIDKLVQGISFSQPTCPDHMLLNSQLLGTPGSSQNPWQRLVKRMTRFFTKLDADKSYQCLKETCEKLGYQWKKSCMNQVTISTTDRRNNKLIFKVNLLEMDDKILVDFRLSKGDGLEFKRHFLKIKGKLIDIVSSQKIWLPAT
T3 sequence (P68400 whole entry): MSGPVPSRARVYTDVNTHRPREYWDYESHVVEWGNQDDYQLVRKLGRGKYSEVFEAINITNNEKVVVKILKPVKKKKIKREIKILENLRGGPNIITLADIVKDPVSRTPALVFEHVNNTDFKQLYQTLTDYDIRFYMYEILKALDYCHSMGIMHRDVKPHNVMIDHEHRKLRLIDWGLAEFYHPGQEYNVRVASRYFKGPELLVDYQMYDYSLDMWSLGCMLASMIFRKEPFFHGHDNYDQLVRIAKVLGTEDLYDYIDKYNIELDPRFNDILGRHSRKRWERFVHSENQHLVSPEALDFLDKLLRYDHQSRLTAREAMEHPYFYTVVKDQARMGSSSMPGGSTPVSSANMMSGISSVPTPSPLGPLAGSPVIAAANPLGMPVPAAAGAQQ
T4 sequence (Q7KZI7 1-725 isoform Q7KZI7-4): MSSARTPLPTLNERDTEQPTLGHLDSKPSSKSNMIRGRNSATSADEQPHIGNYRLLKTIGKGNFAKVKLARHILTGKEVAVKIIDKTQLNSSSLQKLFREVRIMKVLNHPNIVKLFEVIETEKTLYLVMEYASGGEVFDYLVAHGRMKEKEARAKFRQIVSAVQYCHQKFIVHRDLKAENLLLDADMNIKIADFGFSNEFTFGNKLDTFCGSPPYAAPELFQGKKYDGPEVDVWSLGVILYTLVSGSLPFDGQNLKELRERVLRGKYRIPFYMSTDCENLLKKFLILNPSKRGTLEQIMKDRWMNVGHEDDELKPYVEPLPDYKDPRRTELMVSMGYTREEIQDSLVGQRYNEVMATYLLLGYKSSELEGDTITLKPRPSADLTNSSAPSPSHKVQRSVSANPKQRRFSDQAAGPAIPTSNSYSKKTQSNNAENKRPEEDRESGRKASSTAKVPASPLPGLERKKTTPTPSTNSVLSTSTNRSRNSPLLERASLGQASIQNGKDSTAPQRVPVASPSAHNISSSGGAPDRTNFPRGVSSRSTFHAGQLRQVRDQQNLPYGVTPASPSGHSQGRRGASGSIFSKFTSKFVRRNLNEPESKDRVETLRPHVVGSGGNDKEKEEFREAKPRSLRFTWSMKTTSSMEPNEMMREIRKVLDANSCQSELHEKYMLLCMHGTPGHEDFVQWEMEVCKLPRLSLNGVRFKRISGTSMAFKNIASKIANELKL
T8 sequence (Q16539 whole entry): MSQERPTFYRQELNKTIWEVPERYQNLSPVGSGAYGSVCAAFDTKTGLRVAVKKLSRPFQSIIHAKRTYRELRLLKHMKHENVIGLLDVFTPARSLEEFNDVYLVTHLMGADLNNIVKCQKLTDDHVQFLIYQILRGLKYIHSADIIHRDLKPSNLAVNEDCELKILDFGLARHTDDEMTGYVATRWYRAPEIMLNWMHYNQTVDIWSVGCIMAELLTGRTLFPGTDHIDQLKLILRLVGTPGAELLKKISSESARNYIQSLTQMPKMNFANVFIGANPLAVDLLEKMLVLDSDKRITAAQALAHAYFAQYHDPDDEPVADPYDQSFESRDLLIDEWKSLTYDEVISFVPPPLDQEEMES

SMILES: CCCCCCCCCCCCOC(=O)CCC(=O)N1CCN(CCCOc2cc3c(Nc4ccc(F)c(Cl)c4)ncnc3cc2OC)CC1 [Analogue-18, dodecyl 4-(4-(3-(4-(3-chloro-4-fluorophenylamino)-7-methoxyquinazolin-6-yloxy)propyl)piperazin-1-yl)-4-oxobutanoate]
- survivin gene expression (survivin [1]): significantly inhibited in a concentration-dependent manner
- remaining activity at 10 µM [2]: 82%
- remaining activity at 10 µM [3]: 98%
- remaining activity at 10 µM [4]: 76%
- remaining activity at 10 µM (MARK2 (PAR-1Ba)): 84%
- remaining activity at 10 µM [5]: 82%
- IC50 (EGFR protein kinase; by the IVIS system): ~130 nM
- IC50 (EGFR protein kinase; by the Luminometer): ~126 nM
- fractions of G1, S and G2/M phases (A549 cells [6]; 0 to 40 μM): does not significantly alter
- average percentage of sub-G1 fractions (A549 cells [6]; 40 μM): 66.7%
- remaining activity at 10 µM (LCK (lymphocyte kinase)): 89%
- remaining activity at 10 µM [7]: 87%
- remaining activity at 10 µM [8]: 87%
- reducing cell viability ([9]; H1299, 0 to 40 μM, compared with Iressa): more effective on reducing cell viability than Iressa
- toxicity effects ([9]; H1299, 40 μM): more than 99%
- remaining activity at 10 µM [10]: 69%
- resistance of survivin-overexpressing cells to induced apoptosis (A549 cells [11]): the transfection of pCT-GFP-sur8 was more resistant to the Analogue-18-induced apoptosis than pCT-GFP2
- average tumor size [12]: 118.19 mm^3
- average of total apoptosis (A549 cells [13]): around 67.9%
- survivin protein levels of xenograft tumors (survivin [14]): significantly reduced about half amount
